Measured values from patent publication US20220175713A1, “DEPSIDE TRIMERIC COMPOUNDS FOR SKELETAL MUSCLE MODULATION” (SOCIETE DES PRODUITS NESTLE S.A., priority 2019, published 2022).

Test system: mouse hindlimb muscles injured with cardiotoxin
Assay: In vivo muscle regeneration after intramuscular cardiotoxin injury
Details: mice, oral gavage 100 mg/kg body weight once a day from one week before injury, muscles harvested 5 days after injury, vs. water control, FIG. 6
Method: (§1) Early phase of expansion and subsequent phase of myogenic differentiation of Muscle Stem Cells were evaluated by counting the number of Pax7+ cells (A) and myogenin+ cells (B), respectively. Data are expressed as number of cells per area of injured muscle. The size of each newly formed myofiber (C) has been measured based on the expression of the eMHC and laminin that allow to recognize and delineate these nascent myofibers. Results are shown as mean myofiber cross-sectional area (μm^2).
In order to reproduce the physiological process of muscle regeneration that occurs in adult skeletal muscles in response to injury or disease, we performed an intramuscular injection of cardiotoxin into mouse hindlimb muscles. One week prior to the induction of the muscle injury, mice were given by oral gavage gyrophoric acid (at 100 mg/kg body weight) vs. water control. […] Several myogenic markers were then measured. […]
as §1, with “(FIG. 6A)” for “(A)”, “(FIG. 6B),” for “(B),”, “(FIG. 6C)” for “(C)”, “Results are shown as mean myofiber cross-sectional area (μm^2).” left out

Cc1cc(OC(=O)c2c(C)cc(OC(=O)c3c(C)cc(O)cc3O)cc2O)cc(O)c1C(=O)O [gyrophoric acid, 4-[4-(2,4-dihydroxy-6-methylbenzoyl)oxy-2-hydroxy-6-methylbenzoyl]oxy-2-hydroxy-6-methylbenzoic acid]
in vivo muscle regeneration process (Pax7+ cells, myogenin+ cells, size of newly formed myofibers): Able to Promote the In Vivo Muscle Regeneration Process
